Reference: PubChem BioAssay (NCI)
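GI50 is the concentration that inhibits growth by half. TGI marks complete inhibition of growth.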

Key:
Assay in all cases: DTP human tumour cell line panel, 384-well format
[1] = tested on: 786-0 renal
[2] = tested on: A498 renal
[3] = tested on: A549 NSCLC
[4] = tested on: ACHN renal
[5] = tested on: BT-549 breast
[6] = tested on: CAKI-1 renal
[7] = tested on: CCRF-CEM leukemia
[8] = tested on: COLO 205 colon
[9] = tested on: DU-145 prostate
[10] = tested on: EKVX NSCLC
[11] = tested on: HCC-2998 colon
[12] = tested on: HCT-116 colon
[13] = tested on: HCT-15 colon
[14] = tested on: HL-60(TB) leukemia
[15] = tested on: HOP-62 NSCLC
[16] = tested on: HOP-92 NSCLC
[17] = tested on: HS 578T breast
[18] = tested on: HT29 colon
[19] = tested on: IGROV1 ovarian
[20] = tested on: K-562 leukemia
[21] = tested on: KM12 colon
[22] = tested on: LOX IMVI melanoma
[23] = tested on: M14 melanoma
[24] = tested on: MALME-3M melanoma
[25] = tested on: MCF7 breast
[26] = tested on: MDA-MB-231 breast
[27] = tested on: MDA-MB-435 melanoma
[28] = tested on: MDA-MB-468 breast
[29] = tested on: MOLT-4 leukemia
[30] = tested on: NCI-H226 lung
[31] = tested on: NCI-H23 lung
[32] = tested on: NCI-H322M lung
[33] = tested on: NCI-H460 NSCLC
[34] = tested on: NCI-H522 lung
[35] = tested on: NCI/ADR-RES ovarian
[36] = tested on: OVCAR-3 ovarian
[37] = tested on: OVCAR-4 ovarian
[38] = tested on: OVCAR-8 ovarian
[39] = tested on: PC-3 prostate
[40] = tested on: RPMI-8226 leukemia
[41] = tested on: RXF 393 renal
[42] = tested on: SF-268 CNS
[43] = tested on: SF-295 CNS
[44] = tested on: SF-539 CNS
[45] = tested on: SK-MEL-28 melanoma
[46] = tested on: SK-MEL-5 melanoma
[47] = tested on: SK-OV-3 ovarian
[48] = tested on: SN12C renal
[49] = tested on: SNB-19 CNS
[50] = tested on: SNB-75 CNS
[51] = tested on: SR leukemia
[52] = tested on: SW-620 colon
[53] = tested on: T-47D breast
[54] = tested on: TK-10 renal
[55] = tested on: U251 glioblastoma
[56] = tested on: UACC-257 melanoma
[57] = tested on: UACC-62 melanoma
[58] = tested on: UO-31 renal

Compound `CCCN(CCC)C(=O)C1=Cc2ccc(-c3ccc(C(=O)N4CCCC4)cc3)cc2N=C(N)C1` has a GI50 [1] of 4.81 µM, a TGI [1] of 16.6 µM and a GI50 [2] of 3.93 µM. For the same compound, the TGI [2] was 15.3 µM, the GI50 [3] was 6.2 µM and the TGI [3] was 19.9 µM. For the same compound, the GI50 [4] was 10.8 µM, the TGI [4] was 23.5 µM and the GI50 [5] was 4.19 µM. It also gave a TGI [5] of 14.8 µM, a GI50 [6] of 5.86 µM and a TGI [6] of 19.2 µM. For the same compound, the GI50 [7] was 3.53 µM, the TGI [7] was 11.2 µM and the GI50 [8] was 4.89 µM. For the same compound, the TGI [8] was 16.9 µM, the GI50 [9] was 9.15 µM and the TGI [9] was 22.2 µM. For the same compound, the GI50 [10] was 3.93 µM, the TGI [10] was 16.5 µM and the GI50 [11] was 5.42 µM. The TGI [11] was 18.3 µM, the GI50 [12] was 3.47 µM and the TGI [12] was 13.1 µM. For the same compound, the GI50 [13] was 3.48 µM, the TGI [13] was 14.1 µM and the GI50 [14] was 1.52 µM. It also gave a TGI [14] of 2.86 µM, a GI50 [15] of 3.07 µM and a TGI [15] of 11.7 µM. For the same compound, the GI50 [16] was 4 µM, the TGI [16] was 15.7 µM and the GI50 [17] was 3.34 µM. The TGI [17] was 12 µM, the GI50 [18] was 3.41 µM and the TGI [18] was 11.9 µM. For the same compound, the GI50 [19] was 10 µM, the TGI [19] was 23.4 µM and the GI50 [20] was 2.52 µM. The TGI [20] was 10.3 µM, the GI50 [21] was 2.81 µM and the TGI [21] was 11.2 µM. For the same compound, the GI50 [22] was 5.71 µM, the TGI [22] was 18.2 µM and the GI50 [23] was 3.76 µM. The TGI [23] was 13 µM, the GI50 [24] was 3.81 µM and the TGI [24] was 14.6 µM. The GI50 [25] was 3.11 µM, the TGI [25] was 12.1 µM and the GI50 [26] was 5.09 µM. The TGI [26] was 17.5 µM, the GI50 [27] was 2.2 µM and the TGI [27] was 5.73 µM. It also gave a GI50 [28] of 1.63 µM, a TGI [28] of 5.02 µM and a GI50 [29] of 2.51 µM. For the same compound, the TGI [29] was 8.74 µM, the GI50 [30] was 10.7 µM and the TGI [30] was 23.8 µM. The GI50 [31] was 3.67 µM, the TGI [31] was 14.7 µM and the GI50 [32] was 7.93 µM. For the same compound, the TGI [32] was 20.6 µM, the GI50 [33] was 2.23 µM and the TGI [33] was 5.31 µM. The GI50 [34] was 2.69 µM, the TGI [34] was 10.3 µM and the GI50 [35] was 12.8 µM. It also gave a TGI [35] of 27.9 µM, a GI50 [36] of 2.78 µM and a TGI [36] of 6.51 µM. The GI50 [37] was 12.4 µM, the TGI [37] was 26 µM and the GI50 [38] was 8.34 µM. It also gave a TGI [38] of 21.4 µM, a GI50 [39] of 3.66 µM and a TGI [39] of 13.9 µM. For the same compound, the GI50 [40] was 1.78 µM, the TGI [40] was 5.78 µM and the GI50 [41] was 2.52 µM. For the same compound, the TGI [41] was 10.4 µM, the GI50 [42] was 5.11 µM and the TGI [42] was 17.6 µM. For the same compound, the GI50 [43] was 3.42 µM, the TGI [43] was 12.9 µM and the GI50 [44] was 3.99 µM. The TGI [44] was 16.6 µM, the GI50 [45] was 11 µM and the TGI [45] was 23 µM. It also gave a GI50 [46] of 1.6 µM, a TGI [46] of 3.65 µM and a GI50 [47] of 5.22 µM. The TGI [47] was 17.2 µM, the GI50 [48] was 13.4 µM and the TGI [48] was 29.4 µM. It also gave a GI50 [49] of 4.95 µM, a TGI [49] of 17.4 µM and a GI50 [50] of 3.48 µM. It also gave a TGI [50] of 12.5 µM, a GI50 [51] of 1.31 µM and a TGI [51] of 3.21 µM. For the same compound, the GI50 [52] was 4.06 µM, the TGI [52] was 14.6 µM and the GI50 [53] was 3.02 µM. It also gave a TGI [53] of 14.4 µM, a GI50 [54] of 10.3 µM and a TGI [54] of 23.3 µM. For the same compound, the GI50 [55] was 5.15 µM, the TGI [55] was 17.4 µM and the GI50 [56] was 5.77 µM. The TGI [56] was 18.7 µM, the GI50 [57] was 4.59 µM and the TGI [57] was 16.4 µM. It also gave a GI50 [58] of 8.31 µM and a TGI [58] of 21.1 µM.
